Results as given in patent publication US9913812B2, “Methods for the treatment of skin neoplasms” (TEIKOKU PHARMA USA, INC., priority 2011, dated 2018).
“Also recorded” adds a separate entry of the source. Read-outs that look alike come from different tables or passages of the source.

How the values were obtained:
[1] = Survival / mortality of tumor-bearing mice during treatment; type: in vivo
Experimental: The percentage of animal mortality and time of death was recorded for every group in the study. Animals were defined as moribund and euthanized if one or more of the following criteria were met: prolonged or excessive pain or distress as defined by clinical observations such as: prostration, hunched posture, paralysis/paresis, distended abdomen, ulcerations, abscesses, seizures and/or hemorrhages; loss of more than 20% of their body weight; if the tumor volumes exceeded 2,000 mm^3 or the tumors ulcerated, bled or produced exudates.
Survival of the animals was recorded for the entire experiment. If an animal died or was euthanized due to morbidity during the experiment, its day of death was designated as “1”. If an animal survived the entire time course of the experiment, the last day of observation was designated as a “0”. Survival data was analyzed using a Kaplan-Meier Survival analysis and survival curves were compared using a Log-rank test. P values less than 0.05 were considered significant.

[2] = Body weights of tumor-bearing mice during treatment; type: in vivo; conditions: for Difference in body weight (BW), Vehicle vs. Rasagiline PO / Difference in percent change in body weight (% BW), Vehicle vs. Rasagiline PO: 15 mg/kg PO daily
Experimental: Body weights were measured prior to dosing and every three days concurrent with tumor measurements for both patch removal/application and oral dosing. Body weights were transformed into percent change in body weight using the formula: […] […] Cisplatin was administered once-weekly via intraperitoneal injection.

[3] = test system: SKMEL28 human melanoma cell line; assay: SKMEL28 melanoma xenograft tumor volume / growth in athymic mice; conditions: for tumor growth rates (in words) / tumor volume / tumor growth on the last day of the experiment (in words): compared to the no treatment group
Description: The SKMEL28 human melanoma cell line was obtained from ATCC and grown according to the vendor's instructions until a log growth phase was obtained. The cells were harvested from the culture vessel, washed once and re-suspended in serum free medium and matrigel mixed at a 1:1 ratio.
Female athymic (nu/nu) mice were used for in vivo animal studies. The mice were 7-8 weeks old at the time of tumor implantation. Six groups of mice were included in the study, with 10 animals in each group.
Mice were inoculated subcutaneously in the scapular area in a volume of 0.2 mL containing ˜10×10^6 SKMEL28 cells.
Tumor dimensions were measured twice a week with digital calipers and tumor volumes were calculated from the dimensions with the formula: Tumor Volume (m)=(a^2×b/2); where “a” was the smallest dimension and “b” was the largest dimension. […] Test article treatment was initiated on the same day as assignment to treatment groups. Tumor dimensions were measured and tumor volumes calculated every three days (at the same time as patch removal and application) for 21 days. Tumor volumes were also transformed into percent change in tumor volume using the formula: Percent Change TV=(TVi−TVo)/TVo×100%; where TV was tumor volume, TVi was the tumor volume at the measurement time and TVo was the initial tumor volume. Differences between treatment groups for both the raw tumor volumes and percent changes in tumor volume versus time data sets were evaluated with Two-way ANOVAs. Pair-wise differences between the no treatment and test article treatment groups on each measurement day were evaluated with post hoc Bonferroni's T-tests. In order to evaluate the growth rates of the tumors between treatments, straight lines were fitted through the different data sets (percent change in tumor volumes versus time) by least squares regression. Slopes of the lines were compared initially between all groups and then in a pair-wise fashion between the “no treatment” and “test article” treated groups using an F-test. In all cases, P values less than 0.05 were considered significant.
Test article administrations were initiated on the same day as treatment group assignments and according to the Experimental Grouping Table. Rasagiline administration consisted of either oral gavage (15 mg/kg PO, daily for 21 days) or topical transdermal patch treatment. Cisplatin was administered once-weekly via intraperitoneal injection. Transdermal patches were applied to the intrascapular (i.e., directly over the tumor) and chest areas and maintained in position with a single BandAid™. Fresh patches were applied to the same locations every third day. The skin was cleaned prior to the first patch application with clorehexadene and as necessary prior to repeat applications. […] Mice were conscious and lightly restrained for patch removal and application. The patches were 0.75 or 1.2 in^2.

[4] = oral administration (0.45 mg/kg), cited from earlier work
[5] = in vivo; conditions: athymic nude, mouse, po, 15 mg/kg
Experimental: At the end of the 21-day treatment duration, 2 animals from each group were euthanized at each of the following time points by isoflurane inhalation (0.5, 1, 2, 4, 8, and 24 hours after the last administration of the test articles including the application of fresh transdermal patches). For the 15 mg/kg PO Rasagiline group, two mice were bled twice (cheek bleed and terminal cardiac) so that ten mice could supply blood samples for six time points. Blood samples were collected from these animals via cardiac puncture into blood collection tubes containing lithium heparin. The blood samples were processed within 30 minutes of collection by centrifugation to prepare plasma samples. The plasma was separated from the cellular fraction and frozen on dry ice. Plasma samples were stored at −80° C. until they were shipped to an analytical laboratory designated by the Sponsor.
To compare rasagiline exposure by both dosing routes, blood was collected from two animals at each time point by sparse sampling techniques via cardiocentesis prior to euthanasia. Two samples were collected each from two animals in the oral dose group by collecting the first sample from the submandibular vein at 0.25 hours and cardiocentesis at eight hours. Blood was collected from animals administered oral rasagiline at 0.25, 0.5, 1, 2, 4 and 8 hours after the last oral dose. Animals administered the transdermal patches had blood collected at 0.5, 1, 2, 4, and 24 hours on the last application day. Blood collected from animals in the naïve, vehicle, and placebo patch groups determined baseline values and were used for pre-dose levels. […] Mean values for each time point within the rasagiline groups were used to calculate the mean AUC(0-t) value. The AUC(0-8) derived for the oral rasagiline group was multiplied by three to estimate the AUC(0-24) exposure. The ratio of AUC(0-24) for each of the baseline transdermal groups was divided by the estimated oral AUC(0-24) to compare exposures between the two dosing routes.

[6] = oral gavage 15 mg/kg, listed as rasagiline mesylate, 15 mg/kg
[7] = oral gavage 15 mg/kg, listed as rasagiline, 15 mg/kg

Q: With `N.N.[Cl][Pt][Cl]` [Cisplatin] as the molecule, how does the “survival versus No Treatment group (Logrank test; in words)” value ([1]; 10 mg/kg IP every 7 days) read?
A: Yes

Q: And the animals that died ([1]; 10 mg/kg IP every 7 days, group of 10, deaths on Days 13-17)?
A: 7 out of the 10

Q: And the “body weight loss (in words)” value ([2]; 10 mg/kg IP, versus any other treatment group)?
A: greater body weight loss

Q: What about the “SLOPE, best-fit value of linear fit to percent changes in tumor volume versus time” value ([3]; 10 mg/kg IP every 7 days) of the same molecule?
A: 13.16

Q: What about the “tumor growth rates (in words)” value ([3]; 10 mg/kg IP) of the same molecule?
A: significantly slowed; also recorded: significantly reduced tumor growth rates

Q: What about the “reduction in the percent change in tumor volumes” value ([3]; 10 mg/kg IP, compared to the oral vehicle treatment, prior to death of the majority of the animals) of the same molecule?
A: 49%

Q: What does the source list for `C#CCNC1CCc2ccccc21` (stereo not shown) [Rasagiline, N-propargyl-1-aminoindan]?
A: survival (in words) ([1]; orally or transdermally, 21 days): survived to the end of the study; also recorded: survived the dosing period; Maximum % of dose ([4]; Fat): 8.47 % of dose; Time to maximal exposure ([4]; Fat): 0.25; Maximum % of dose ([4]; Kidneys): 3.89 % of dose; Time to maximal exposure ([4]; Kidneys): 0.25; Maximum % of dose ([4]; Large intestine): 1.83 % of dose; Time to maximal exposure ([4]; Large intestine): 1; Maximum % of dose ([4]; Liver): 13.20 % of dose; Time to maximal exposure ([4]; Liver): 0.25; Maximum % of dose ([4]; Lung): 1.46 % of dose; Time to maximal exposure ([4]; Lung): 0.25; Maximum % of dose ([4]; Muscle): 24.11 % of dose; Time to maximal exposure ([4]; Muscle): 0.25; Maximum % of dose ([4]; Skin): 13.20 % of dose; Time to maximal exposure ([4]; Skin): 0.25; Maximum % of dose ([4]; Small intestine): 8.76 % of dose; Time to maximal exposure ([4]; Small intestine): 0.25; Maximum % of dose ([4]; Stomach): 4.73 % of dose; Time to maximal exposure ([4]; Stomach): 0.5; Maximum % of dose ([4]; Whole Blood): 4.54 % of dose; Time to maximal exposure ([4]; Whole Blood): 0.25; Difference in body weight (BW), Vehicle vs. Rasagiline PO ([2]; Day 1): 0.4100; Difference in percent change in body weight (% BW), Vehicle vs. Rasagiline PO ([2]; Day 1): 0.0000%; Difference in body weight (BW), Vehicle vs. Rasagiline PO ([2]; Day 4): −0.1100; Difference in percent change in body weight (% BW), Vehicle vs. Rasagiline PO ([2]; Day 4): −2.229%; Difference in body weight (BW), Vehicle vs. Rasagiline PO ([2]; Day 7): 0.2200; Difference in percent change in body weight (% BW), Vehicle vs. Rasagiline PO ([2]; Day 7): −0.7052%; Difference in body weight (BW), Vehicle vs. Rasagiline PO ([2]; Day 10): 0.3400; Difference in percent change in body weight (% BW), Vehicle vs. Rasagiline PO ([2]; Day 10): −0.2490%; Difference in body weight (BW), Vehicle vs. Rasagiline PO ([2]; Day 13): 0.1700; Difference in percent change in body weight (% BW), Vehicle vs. Rasagiline PO ([2]; Day 13): −1.053%; Difference in body weight (BW), Vehicle vs. Rasagiline PO ([2]; Day 16): 0.2800; Difference in percent change in body weight (% BW), Vehicle vs. Rasagiline PO ([2]; Day 16): −0.4240%; Difference in body weight (BW), Vehicle vs. Rasagiline PO ([2]; Day 22): −0.5500; Difference in percent change in body weight (% BW), Vehicle vs. Rasagiline PO ([2]; Day 22): −4.072%; percent change in body weight (in words) ([2]; oral 15 mg/kg daily, compared with the no treatment group, 15 mg/kg): steadily reduced body weight from day 13 onwards; SLOPE, best-fit value of linear fit to percent changes in tumor volume versus time ([3]; 15 mg/kg PO daily, 21 days): 26.64; Difference in percent change in tumor volume (% TV), Vehicle vs. Rasagiline 15 mg/kg PO ([3]; Day 1, 15 mg/kg PO daily): 0.0000%; Difference in tumor volume (TV), Vehicle vs. Rasagiline (15 mg/kg PO) ([3]; Day 1, 15 mg/kg PO daily): −0.2606; Difference in percent change in tumor volume (% TV), Vehicle vs. Rasagiline 15 mg/kg PO ([3]; Day 4, 15 mg/kg PO daily): −12.56%; Difference in tumor volume (TV), Vehicle vs. Rasagiline (15 mg/kg PO) ([3]; Day 4, 15 mg/kg PO daily): −15.03; Difference in percent change in tumor volume (% TV), Vehicle vs. Rasagiline 15 mg/kg PO ([3]; Day 7, 15 mg/kg PO daily): −36.19%; Difference in tumor volume (TV), Vehicle vs. Rasagiline (15 mg/kg PO) ([3]; Day 7, 15 mg/kg PO daily): −40.95; Difference in percent change in tumor volume (% TV), Vehicle vs. Rasagiline 15 mg/kg PO ([3]; Day 10, 15 mg/kg PO daily): −42.92%; Difference in tumor volume (TV), Vehicle vs. Rasagiline (15 mg/kg PO) ([3]; Day 10, 15 mg/kg PO daily): −50.83; Difference in percent change in tumor volume (% TV), Vehicle vs. Rasagiline 15 mg/kg PO ([3]; Day 13, 15 mg/kg PO daily): −71.82%; Difference in tumor volume (TV), Vehicle vs. Rasagiline (15 mg/kg PO) ([3]; Day 13, 15 mg/kg PO daily): −92.36; Difference in percent change in tumor volume (% TV), Vehicle vs. Rasagiline 15 mg/kg PO ([3]; Day 16, 15 mg/kg PO daily): −98.35%; Difference in tumor volume (TV), Vehicle vs. Rasagiline (15 mg/kg PO) ([3]; Day 16, 15 mg/kg PO daily): −128.8; Difference in percent change in tumor volume (% TV), Vehicle vs. Rasagiline 15 mg/kg PO ([3]; Day 22, 15 mg/kg PO daily): −153.3%; Difference in tumor volume (TV), Vehicle vs. Rasagiline (15 mg/kg PO) ([3]; Day 22, 15 mg/kg PO daily): −154.4; tumor volume / tumor growth on the last day of the experiment (in words) ([3]; oral gavage 15 mg/kg, 15 mg/kg): significantly reduced tumor volume; tumor growth rates (in words) [3, 6]: significantly reduced absolute tumor volumes as well as tumor growth rates; tumor volume / tumor growth on the last day of the experiment (in words) [3, 6]: significantly reduced absolute tumor volumes; tumor growth rates (in words) [3, 7]: significantly slowed; also recorded: significantly reduced tumor growth rates; tumor volume / tumor growth on the last day of the experiment (in words) [3, 7]: significant reductions in tumor growth; reduction in percent change in tumor volume ([3]; oral gavage 15 mg/kg, compared to the oral vehicle control): 22%; tumor growth rates (in words) ([3]; transdermal patch): significantly reduced absolute tumor volumes as well as tumor growth rates; tumor volume / tumor growth on the last day of the experiment (in words) ([3]; transdermal patch): significantly reduced absolute tumor volumes; Cmax [5]: 899 ng/mL; Tmax [5]: 15 min; concentration at 0.25 h [5]: 899 ng/mL; concentration at 0.5 h [5]: 370 ng/mL; concentration at 1 h [5]: 216 ng/mL; concentration at 2 h [5]: 82.5 ng/mL; concentration at 4 h [5]: 28.4 ng/mL; concentration at 8 h [5]: 19.9 ng/mL; time of mean maximal plasma concentration [5]: 15 min; AUC(0-t) ([5]; Mean AUC(0-24)): 774 ng·h/mL; AUC(0-t) ([5]; estimated exposure after 24 hours (AUC(0-8) multiplied by three)): 2320 ng·h/mL
